Read-outs that look alike come from different tables or passages of the source.
Tests used:
[1] = target: T1, human adenosine A2A receptor (Homo sapiens, UniProt P29274); assay: Human adenosine A2A receptor [3H]-SCH-58261 binding assay
T1 construct: expressed in transfected cells; host or cells: CHO cells, Semliki Forest virus expression system; membrane preparation

HA1 adenosine receptor = target: T2, HA1 adenosine receptor (Homo sapiens, UniProt P30542); assay: Human adenosine A1 receptor affinity (Ki hA1); format: binding
T2 sequence (P30542 1-326): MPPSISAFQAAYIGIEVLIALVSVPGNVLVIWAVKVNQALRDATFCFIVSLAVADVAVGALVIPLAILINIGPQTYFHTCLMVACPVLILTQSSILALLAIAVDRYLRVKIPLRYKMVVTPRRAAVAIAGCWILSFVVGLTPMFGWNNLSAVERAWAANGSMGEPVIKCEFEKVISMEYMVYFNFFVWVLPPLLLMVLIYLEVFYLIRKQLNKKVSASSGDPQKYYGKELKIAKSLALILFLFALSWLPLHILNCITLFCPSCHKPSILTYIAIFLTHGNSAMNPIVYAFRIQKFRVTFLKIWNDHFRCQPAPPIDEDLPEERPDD

[2] = affinity to human adenosine A2A receptor, read-out: Ki HA2A
[3] = calculated ratio of the affinity to the HA1 receptor to the HA2a receptor
[4] = affinity to human adenosine A1 receptor
[5] = recombinant human A2A in CHO cell membranes, [3H]-SCH-58261, Cheng-Prussoff, read-out: Ki hA2A

T1 sequence (P29274 whole entry): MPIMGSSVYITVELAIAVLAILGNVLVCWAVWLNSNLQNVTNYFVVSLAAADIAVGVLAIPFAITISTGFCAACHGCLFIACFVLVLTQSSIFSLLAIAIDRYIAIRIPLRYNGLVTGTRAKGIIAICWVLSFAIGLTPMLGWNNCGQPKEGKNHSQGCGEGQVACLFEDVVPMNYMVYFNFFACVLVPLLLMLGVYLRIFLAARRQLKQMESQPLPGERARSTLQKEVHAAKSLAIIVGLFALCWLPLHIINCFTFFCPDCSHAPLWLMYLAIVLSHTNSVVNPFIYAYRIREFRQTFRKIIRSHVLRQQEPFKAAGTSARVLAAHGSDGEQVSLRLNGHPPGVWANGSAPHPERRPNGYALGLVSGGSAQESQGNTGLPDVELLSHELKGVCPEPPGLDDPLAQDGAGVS

| Compound | Ki [1, 2] [nM] | selectivity (A1/A2a) [1, 3] | Ki (HA1 adenosine receptor; [4]) [nM] | selectivity (A1/A2a) ([1]; ratio KiHA1 divided by KiHA2A) | Ki [1, 5] [nM] | Ki (HA1 adenosine receptor) [nM] |
| --- | --- | --- | --- | --- | --- | --- |
| CC1C=CC(C)N1C(=O)c1cc(N)n2nc(-c3ccc(Br)o3)nc2c1 (stereo not drawn) [Example 273, [5-Amino-2-(5-bromo-furan-2-yl)-[1,2,4]triazolo[1,5-a]pyridin-7-yl]-(2,5-dimethyl-2,5-dihydro-pyrrol-1-yl)-methanone] | 3.9 | 64.4 | 251 |  |  |  |
| CN(C)C(=O)C1CCCN1C(=O)c1cc(N)n2nc(-c3ccc(Br)o3)nc2c1 (stereo not drawn) [Example 390, 1-[5-Amino-2-(5-bromo-furan-2-yl)-[1,2,4]triazolo[1,5-a]pyridine-7-carbonyl]-pyrrolidine-2-carboxylic acid dimethylamide] |  |  |  | 98 | 8.3 | 813 |
| CC1C=CC(C)N1C(=O)c1cc(N)n2nc(-c3ccccn3)nc2c1 (stereo not drawn) [Example 415, (5-Amino-2-pyridin-2-yl-[1,2,4]triazolo[1,5-a]pyridin-7-yl)-(2,5-dimethyl-2,5-dihydro-pyrrol-1-yl)-methanone] |  |  |  | 3.6 | 75.4 | 274 |
| CC(C)N(C(=O)c1cc(N)n2nc(-c3ccc(Br)o3)nc2c1)C1CCCCC1 [Example 351, 5-Amino-2-(5-bromo-furan-2-yl)-[1,2,4]triazolo[1,5-a]pyridine-7-carboxylic acid cyclohexyl-isopropyl-amide] | 2.9 | 26.7 | 77.3 |  |  |  |
| Nc1cc(C(=O)NCc2ccccc2)cc2nc(-c3ccccn3)nn12 [Example 46, 5-Amino-2-pyridin-2-yl-[1,2,4]triazolo[1,5-a]pyridine-7-carboxylic acid benzylamide] | 61.1 | 3.0 | 184 |  |  |  |
| CC1CC(C)CN(C(=O)c2cc(N)n3nc(-c4nccs4)nc3c2)C1 (stereo not drawn) [Example 333, (5-Amino-2-thiazol-2-yl-[1,2,4]triazolo[1,5-a]pyridin-7-yl)-(3,5-dimethyl-piperidin-1-yl)-methanone] | 36.1 | 47.9 | 1730 |  |  |  |
| CC1CC(C)CN(C(=O)c2cc(N)n3nc(-c4ccccn4)nc3c2)C1 (stereo not drawn) [Example 423, (5-Amino-2-pyridin-2-yl-[1,2,4]triazolo[1,5-a]pyridin-7-yl)-(3,5-dimethyl-piperidin-1-yl)-methanone] |  |  |  | 24.6 | 33.8 | 832 |
| Nc1cc(C(=O)N2CCOCC2)cc2nc(-c3ccc(Br)o3)nn12 [Example 132, [5-Amino-2-(5-bromo-furan-2-yl)-[1,2,4]triazolo[1,5-a]pyridin-7-yl]-morpholin-4-yl-methanone] | 33.8 | 22.7 | 767 |  |  |  |
| Cn1cccc1-c1nc2cc(C(=O)N3CCCC3)cc(N)n2n1 [Example 134, [5-Amino-2-(1-methyl-1H-pyrrol-2-yl)-[1,2,4]triazolo[1,5-a]pyridin-7-yl]-pyrrolidin-1-yl-methanone] | 287 | 9.3 | 2680 |  |  |  |
| Nc1cc(C(=O)N(Cc2ccccc2)Cc2ccccc2)cc2nc(-c3nccs3)nn12 [Example 327, 5-Amino-2-thiazol-2-yl-[1,2,4]triazolo[1,5-a]pyridine-7-carboxylic acid dibenzylamide] | 5.8 | 22.2 | 128 |  |  |  |
| CC(C)N(C(=O)c1cc(N)n2nc(-c3nccs3)nc2c1)C(C)C [Example 122, 5-Amino-2-thiazol-2-yl-[1,2,4]triazolo[1,5-a]pyridine-7-carboxylic acid diisopropylamide] | 317 | 10.5 | 3320 |  |  |  |
| Cn1cccc1-c1nc2cc(C(=O)NCc3ccccc3)cc(N)n2n1 [Example 180, 5-Amino-2-(1-methyl-1H-pyrrol-2-yl)-[1,2,4]triazolo[1,5-a]pyridine-7-carboxylic acid benzylamide] | 112 | 2.7 | 307 |  |  |  |
